The values that follow come from ChEMBL document CHEMBL5729531, “Neprilysin inhibitors” (2023).

This assay deals with Neprilysin/Angiotensin-converting enzyme (Homo sapiens, UniProt P12821+P08473). Description: Enzyme Inhibition Assay: The assays were performed in 384-well white opaque plates at 37° C. using the fluorogenic peptide substrates at a concentration of 10 μM in Assay Buffer (NEP: 50 mM HEPES, pH 7.5, 100 mM NaCl, 0.01% polyethylene glycol sorbitan monolaurate (Tween-20), 10 μM ZnSO4; ACE: 50 mM HEPES, pH 7.5, 100 mM NaCl, 0.01% Tween-20, 1 μM ZnSO4). The respective enzymes were used at …. Format: protein-complex assay.

Description: Enzyme Inhibition Assay: The assays were performed in 384-well white opaque plates at 37° C. using the fluorogenic peptide substrates at a concentration of 10 μM in Assay Buffer (NEP: 50 mM HEPES, pH 7.5, 100 mM NaCl, 0.01% polyethylene glycol sorbitan monolaurate (Tween-20), 10 μM ZnSO4; ACE: 50 mM HEPES, pH 7.5, 100 mM NaCl, 0.01% Tween-20, 1 μM ZnSO4). […] Test compounds were added to the enzymes and incubated for 30 minute at 37° C. prior to initiating the reaction by the addition of substrate. Reactions were terminated after 20 minutes of incubation at 37° C. by the addition of glacial acetic acid to a final concentration of 3.6% (v/v).

In turn, `O=C(O)C(=O)NC(Cc1ccc(-c2ccccc2)cc1)CC(O)C(=O)O` (stereo unspecified) yielded a Ki of 35.5 nM.

As usually defined, the Ki is a measure of affinity in units of concentration, obtained from inhibition or displacement. Read a low Ki as a stronger hold on the target.
